{"source": "patent US7009050B2", "about": "“5-Substituted pyrimidine derivatives of conformationally locked nucleoside analogues” (The United States of America as represented by the …, priority 2000, dated 2006)", "key": {"[1]": {"tested_on": "TK − VZV YS/R strain", "assay": "VZV plaque reduction, TK- VZV YS/R strain", "format": "cell-based, Varicella zoster virus", "conditions": "read-out: Antiviral activity (Plaque reduction) EC50, TK − VZV YS/R strain", "protocol": "(§1) The virus plaque reduction assay proceeds generally as follows. […] The drug concentrations utilized are usually 200 down to 0.06 μg/mL. The virus to be used is diluted in MEM containing 10% FBS to a desired concentration which will give 20–30 plaques/well. The media are then aspirated from the wells, and 0.2 mL of virus is added to each well in duplicate with 0.2 mL of media being added to drug toxicity wells. The plates are then incubated for 1 hr with shaking every 15 min. After the incubation period, an equal amount of 1% agarose is added to an equal volume of each drug dilution. […] The drug agarose mixture is applied to each well in 2 mL volume, and the plates are incubated for 3 days, after which the cells are stained with a […] of neutral red. At the end of the 4–6 h incubation period, the stain is aspirated, and plaques are counted using a stereomicroscope at 10× magnification."}, "[2]": {"tested_on": "TK + VZV OKA strain", "assay": "VZV plaque reduction, TK+ VZV OKA strain", "format": "cell-based, Varicella zoster virus", "conditions": "read-out: Antiviral activity (Plaque reduction) EC50, TK + VZV OKA strain", "protocol": "as §1"}, "[3]": {"assay": "cytotoxicity (cell morphology MCC, cell growth CC50), Table 3", "conditions": "for Cytotoxicity, Cell Morphology (MCC): minimum cytotoxic concentration causing microscopically detectable alteration of cell morphology; for CC50: read-out: Cytotoxicity CC50, cell growth"}, "[4]": {"tested_on": "TK − VZV 07/1 strain", "assay": "VZV plaque reduction, TK- VZV 07/1 strain", "format": "cell-based, Varicella zoster virus", "conditions": "read-out: Antiviral activity (Plaque reduction) EC50, TK − VZV 07/1 strain", "protocol": "as §1"}, "[5]": {"tested_on": "TK + VZV YS strain", "assay": "VZV plaque reduction, TK+ VZV YS strain", "format": "cell-based, Varicella zoster virus", "conditions": "read-out: Antiviral activity (Plaque reduction) EC50, TK + VZV YS strain"}, "[6]": {"tested_on": "HSV-2", "assay": "cytopathogenic effect (CPE) inhibition assay, HSV-2 in HFF", "conditions": "HFF cells"}, "[7]": {"tested_on": "HSV-1", "assay": "cytopathogenic effect (CPE) inhibition assay, HSV-1 in HFF", "conditions": "for HSV-1 (HFF) CPE inhib. EC50: HFF cells, CPE inhibition"}, "[8]": {"tested_on": "human foreskin fibroblast (HFF) cells"}, "[9]": {"tested_on": "Cowpox", "conditions": "HFF cells; CPE inhibition"}, "[10]": {"tested_on": "Vaccinia", "conditions": "HFF cells; plaque reduction"}, "[11]": {"tested_on": "HSV-1", "assay": "virus plaque reduction assay, HSV-1 in HFF"}, "[12]": {"tested_on": "HSV-2", "assay": "virus plaque reduction assay, HSV-2 in HFF"}, "[13]": {"tested_on": "Vaccinia", "conditions": "HFF cells; CPE inhibition"}, "[14]": {"tested_on": "Cowpox", "conditions": "HFF cells; plaque reduction"}, "[15]": {"tested_on": "herpes viruses", "assay": "antiherpes activity of methanocarbathymine conformers (test not specified)", "format": "cell-based"}, "[16]": {"conditions": "plaque reduction assay, more potent than acyclovir"}}, "note": "Read-outs that look alike come from different tables or passages of the source.", "data": [{"molecule": "O=c1[nH]c(=O)n([C@H]2C[C@H](O)[C@@H](CO)O2)cc1/C=C/Br", "note": "[BVDU, reference compound]", "values": [{"measurement": "EC50", "setting": "[1]", "value": "> 150000", "unit": "nM"}, {"measurement": "EC50", "setting": "[2]", "value": 5, "unit": "nM"}, {"measurement": "Cytotoxicity, Cell Morphology (MCC)", "setting": "[3]", "value": ">150", "unit": "μM"}, {"measurement": "CC50", "setting": "[3]", "value": "> 400000", "unit": "nM"}, {"measurement": "EC50", "setting": "[4]", "value": "> 150000", "unit": "nM"}, {"measurement": "EC50", "setting": "[5]", "value": 8, "unit": "nM"}]}, {"molecule": "O=c1[nH]c(=O)n([C@H]2C[C@H](O)[C@]3(CO)C[C@H]23)cc1I", "note": "[(N)-MCdIU (4)]", "values": [{"measurement": "EC50", "setting": "[1]", "value": 3000, "unit": "nM"}, {"measurement": "HSV-2 (HFF) CPE inhib. EC50", "setting": "[6]", "value": 3.3, "unit": "µg/mL"}, {"measurement": "SI (CC50/EC50), HSV-2 CPE inhib.", "setting": "[6]", "value": 30.3}, {"measurement": "EC50", "setting": "[2]", "value": 160, "unit": "nM"}, {"measurement": "Cytotoxicity, Cell Morphology (MCC)", "setting": "[3]", "value": ">5", "unit": "μM"}, {"measurement": "CC50", "setting": "[3]", "value": "> 200000", "unit": "nM"}, {"measurement": "HSV-1 (HFF) CPE inhib. EC50", "setting": "[7]", "value": ">100", "unit": "µg/mL"}, {"measurement": "EC50", "setting": "[4]", "value": "> 5000", "unit": "nM"}, {"measurement": "HSV-1 (HFF) CPE inhib. CC50", "setting": "[8]; HFF cells, column of HSV-1 CPE inhibition", "value": ">100", "unit": "µg/mL"}, {"measurement": "HSV-2 (HFF) CPE inhib. CC50", "setting": "[8]; HFF cells, column of HSV-2 CPE inhibition", "value": ">100", "unit": "µg/mL"}]}, {"molecule": "O=c1[nH]c(=O)n(C2CC(O)C3(CO)CC23)cc1Br", "note": "(centres unmarked) [(N)-MCdBrU (3)]", "values": [{"measurement": "Cowpox (HFF) CPE inhib. EC50", "setting": "[9]", "value": 11.5, "unit": "µg/mL"}, {"measurement": "SI (CC50/EC50), Cowpox CPE inhib.", "setting": "[9]", "value": 8.7}, {"measurement": "SI (CC50/EC50), Vaccinia Plaque red'n", "setting": "[10]", "value": 38.5}, {"measurement": "Vaccinia (HFF) Plaque red'n EC50", "setting": "[10]", "value": 2.6, "unit": "µg/mL"}, {"measurement": "HSV-1 (HFF) plaque red'n EC50", "setting": "[11]; HFF cells, plaque reduction", "value": 0.03, "unit": "µg/mL"}, {"measurement": "SI (CC50/EC50), HSV-1 plaque red'n", "setting": "[11]; HFF cells, plaque reduction", "value": 3333}, {"measurement": "HSV-2 (HFF) plaque red'n EC50", "setting": "[12]; HFF cells, plaque reduction", "value": 0.12, "unit": "µg/mL"}, {"measurement": "SI (CC50/EC50), HSV-2 plaque red'n", "setting": "[12]; HFF cells, plaque reduction", "value": 833}, {"measurement": "EC50", "setting": "[1]", "value": 37000, "unit": "nM"}, {"measurement": "HSV-2 (HFF) CPE inhib. EC50", "setting": "[6]", "value": 0.70, "unit": "µg/mL"}, {"measurement": "SI (CC50/EC50), HSV-2 CPE inhib.", "setting": "[6]", "value": ">142"}, {"measurement": "EC50", "setting": "[2]", "value": 890, "unit": "nM"}, {"measurement": "SI (CC50/EC50), Vaccinia CPE inhib.", "setting": "[13]", "value": ">156"}, {"measurement": "Vaccinia (HFF) CPE inhib. EC50", "setting": "[13]", "value": 0.64, "unit": "µg/mL"}, {"measurement": "Cowpox (HFF) Plaque red'n EC50", "setting": "[14]", "value": 3.4, "unit": "µg/mL"}, {"measurement": "SI (CC50/EC50), Cowpox Plaque red'n", "setting": "[14]", "value": 29.4}, {"measurement": "HSV-1 (HFF) CPE inhib. EC50", "setting": "[7]", "value": 0.39, "unit": "µg/mL"}, {"measurement": "EC50", "setting": "[4]", "value": 107000, "unit": "nM"}, {"measurement": "EC50", "setting": "[5]", "value": 30, "unit": "nM"}, {"measurement": "HSV-1 (HFF) CPE inhib. CC50", "setting": "[8]", "value": ">100", "unit": "µg/mL"}, {"measurement": "HSV-1 (HFF) plaque red'n CC50", "setting": "[8]", "value": ">100", "unit": "µg/mL"}, {"measurement": "HSV-2 (HFF) CPE inhib. CC50", "setting": "[8]", "value": ">100", "unit": "µg/mL"}, {"measurement": "HSV-2 (HFF) plaque red'n CC50", "setting": "[8]", "value": ">100", "unit": "µg/mL"}, {"measurement": "Cowpox (HFF) CPE inhib. CC50", "setting": "[8]; HFF cells, column of Cowpox CPE inhibition", "value": ">100", "unit": "µg/mL"}, {"measurement": "Cowpox (HFF) Plaque red'n CC50", "setting": "[8]; HFF cells, column of Cowpox plaque reduction", "value": ">100", "unit": "µg/mL"}, {"measurement": "Vaccinia (HFF) CPE inhib. CC50", "setting": "[8]; HFF cells, column of Vaccinia CPE inhibition", "value": ">100", "unit": "µg/mL"}, {"measurement": "Vaccinia (HFF) Plaque red'n CC50", "setting": "[8]; HFF cells, column of Vaccinia plaque reduction", "value": ">100", "unit": "µg/mL"}]}, {"molecule": "Cc1cn([C@@]23C[C@H](O)[C@@H](CO)[C@@H]2C3)c(=O)[nH]c1=O", "values": [{"measurement": "antiherpes activity (in words)", "setting": "[15]", "value": "inactive"}]}, {"molecule": "Cc1cn([C@H]2C[C@H](O)[C@]3(CO)C[C@H]23)c(=O)[nH]c1=O", "note": "[(North)-methanocarbathymine, reference compound]", "values": [{"measurement": "potency relative to acyclovir against HSV-1", "setting": "[11]; [16]", "value": 30, "unit": "times"}, {"measurement": "potency relative to acyclovir against HSV-2", "setting": "[12]; [16]", "value": 30, "unit": "times"}]}, {"molecule": "Nc1nc2c(ncn2COCCO)c(=O)[nH]1", "note": "[ACV, acyclovir, reference compound]", "values": [{"measurement": "EC50", "setting": "[7]; Human alphaherpesvirus 1, HFF, read-out: HSV-1 (HFF) CPE inhib. EC50", "value": 0.5, "unit": "µg/mL"}]}, {"molecule": "O=c1[nH]c(=O)n([C@H]2C[C@H](O)[C@]3(CO)C[C@H]23)cc1/C=C/Br", "note": "[(N)-MCBVDU (5)]", "values": [{"measurement": "EC50", "setting": "[1]", "value": "> 5000", "unit": "nM"}, {"measurement": "HSV-2 (HFF) CPE inhib. EC50", "setting": "[6]", "value": ">100", "unit": "µg/mL"}, {"measurement": "SI (CC50/EC50), HSV-2 CPE inhib.", "setting": "[6]", "value": 0}, {"measurement": "EC50", "setting": "[2]", "value": 5, "unit": "nM"}, {"measurement": "HSV-1 (HFF) CPE inhib. EC50", "setting": "[7]", "value": 2.2, "unit": "µg/mL"}, {"measurement": "EC50", "setting": "[4]", "value": "> 5000", "unit": "nM"}, {"measurement": "EC50", "setting": "[5]", "value": 7, "unit": "nM"}, {"measurement": "HSV-1 (HFF) CPE inhib. CC50", "setting": "[8]", "value": ">100", "unit": "µg/mL"}, {"measurement": "HSV-2 (HFF) CPE inhib. CC50", "setting": "[8]", "value": ">100", "unit": "µg/mL"}]}]}
